Earlier results, collected in US9238024B2, “Methods for improving health in canines” (Quality IP Holdings, LLC, priority 2012, dated 2016).

How the values were obtained:
canines [1] = tested on: canines
canines [2] = tested on: canines; remark: listed apart in the source

Compound | new bone formation (canines [1]; adult canines of both sexes, exogenous growth hormone) | bone growth factors and fracture healing (canines [1]; canines) | quantity of protein in the blood plasma (canines [1]; canines given growth hormone) | levels of serum insulin-like growth factor-I (canines [2]; canines) | size and strength of the quadriceps muscle (canines [2]; canines during remobilization)
growth hormone | marked increase | enhances | increased |  | 
CC(C)(N)C(=O)N[C@H](COCc1ccccc1)C(=O)N1CCC2(CC1)CN(S(C)(=O)=O)c1ccccc12 [MK-0677] |  |  |  | elevates | increases
